molecular target: T1, androgen receptor (AR-LBD) (Rattus norvegicus, UniProt P15207); experiment: Evaluation of androgen receptor affinity (PolarScreen Androgen Receptor Competitor Assay Kit, Red; fluorescence polarization); conditions: 22° C. for 5 hours, relative to binding rate of 1 μM DHT, read-out: AR affinity (pEC50) (converted)
T1 construct: 5 μL of 2×AR-LBD/Fluoromone AL Red Complex contained in the kit; purchased Invitrogen
T1 sequence (P15207 651-882 limits assumed): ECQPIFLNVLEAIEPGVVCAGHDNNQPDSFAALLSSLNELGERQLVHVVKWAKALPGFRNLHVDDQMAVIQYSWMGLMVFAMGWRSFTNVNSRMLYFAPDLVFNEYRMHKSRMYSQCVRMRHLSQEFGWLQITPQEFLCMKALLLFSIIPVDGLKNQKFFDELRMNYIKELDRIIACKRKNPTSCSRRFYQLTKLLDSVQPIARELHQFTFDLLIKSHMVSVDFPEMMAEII
Summary of the method: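 Duplicate wells of test compound were mixed with the kit's rat AR-LBD–Fluoromone AL Red tracer complex and left 5 hours at 22 °C before polarization was read. A 4-parameter fit gave pEC50, with binding rate referenced to 1 μM dihydrotestosterone.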

| EC50 [nM] | Compound |
| --- | --- |
| > 2000 | Cc1sc(N(Cc2ccccc2)c2ccc(C#N)cc2)nc1C(=O)NS(=O)(=O)CCN1CCOCC1 [Compound 429, 2-(N-benzyl-4-cyano-anilino)-5-methyl-N-(2-morpholinoethylsulfonyl)thiazole-4-carboxamide] |
| > 2000 | Cc1sc(N(Cc2ccccc2)c2ccc(C#N)cc2)nc1C(=O)NS(=O)(=O)CCN1CCCCC1 [Compound 430, 2-(N-benzyl-4-cyano-anilino)-5-methyl-N-[2-(1-piperidyl)ethylsulfonyl]thiazole-4-carboxamide] |
| > 2000 | Cc1sc(N(CC(=O)C2CCCCC2)c2ccc(C#N)cc2)nc1C(=O)NS(C)(=O)=O [Compound 432, 2-(4-cyano-N-(2-cyclohexyl-2-oxo-ethyl)anilino)-5-methyl-N-methylsulfonyl-thiazole-4-carboxamide] |
| > 2000 | Cc1sc(N(CCCc2ccccc2)c2ccc(C#N)cc2)nc1C(=O)NS(C)(=O)=O [Compound 433, 2-[4-cyano-N-(3-phenylpropyl)anilino]-5-methyl-N-methylsulfonyl-thiazole-4-carboxamide] |
| > 2000 | Cc1sc(N(CC(=O)c2ccccc2)c2ccc(C#N)cc2)nc1C(=O)NS(C)(=O)=O [Compound 434, 2-(4-cyano-N-phenacyl-anilino)-5-methyl-N-methylsulfonyl-thiazole-4-carboxamide] |
| 631 | Cc1ncc(CN(c2ccc(C#N)cc2)c2nc(C(=O)NS(C)(=O)=O)c(C)s2)s1 [Compound 435, 2-[4-cyano-N-[(2-methylthiazol-5-yl)methyl]anilino]-5-methyl-N-methylsulfonyl-thiazole-4-carboxamide] |
| 501 | Cc1sc(N(CC2CCC2)c2ccc(C#N)cc2)nc1C(=O)NS(C)(=O)=O [Compound 440, 2-[4-cyano-N-(cyclobutylmethyl)anilino]-5-methyl-N-methylsulfonyl-thiazole-4-carboxamide] |
| 251 | Cc1sc(N(CCc2cccc3ccccc23)c2ccc(C#N)cc2)nc1C(=O)NS(C)(=O)=O [Compound 441, 2-[4-cyano-N-[2-(1-naphthyl)ethyl]anilino]-5-methyl-N-methylsulfonyl-thiazole-4-carboxamide] |
| 1260 | COC(C)(C)CCN(c1ccc(C#N)cc1)c1nc(C(=O)NS(C)(=O)=O)c(C)s1 [Compound 444, 2-(4-cyano-N-(3-methoxy-3-methyl-butyl)anilino)-5-methyl-N-methylsulfonyl-thiazole-4-carboxamide] |
| 631 | Cc1cc(CN(c2ccc(C#N)cc2)c2nc(C(=O)NS(C)(=O)=O)c(C)s2)no1 [Compound 445, 2-[4-cyano-N-[(5-methylisoxazol-3-yl)methyl]anilino]-5-methyl-N-methylsulfonyl-thiazole-4-carboxamide] |
| 316 | CC[C@H](C)CN(c1ccc(C#N)cc1)c1nc(C(=O)NS(C)(=O)=O)c(C)s1 [Compound 446, 2-(4-cyano-N-[(2S)-2-methylbutyl]anilino)-5-methyl-N-methylsulfonyl-thiazole-4-carboxamide] |
| 1260 | C=CCCN(c1ccc(C#N)cc1)c1nc(C(=O)NS(C)(=O)=O)c(C)s1 [Compound 448, 2-(N-but-3-enyl-4-cyano-anilino)-5-methyl-N-methylsulfonyl-thiazole-4-carboxamide] |
| 398 | Cc1sc(N(CCOC(C)C)c2ccc(C#N)cc2)nc1C(=O)NS(C)(=O)=O [Compound 449, 2-[4-cyano-N-(2-isopropoxyethyl)anilino]-5-methyl-N-methylsulfonyl-thiazole-4-carboxamide] |
| > 2000 | Cc1sc(N(CCn2ccnc2)c2ccc(C#N)cc2)nc1C(=O)NS(C)(=O)=O [Compound 458, 2-[4-cyano-N-(2-imidazol-1-ylethyl)anilino]-5-methyl-N-methylsulfonyl-thiazole-4-carboxamide] |
| 1260 | Cc1sc(N(Cc2nc3ccccc3[nH]2)c2ccc(C#N)cc2)nc1C(=O)NS(C)(=O)=O [Compound 460, 2-[N-(1H-benzimidazol-2-ylmethyl)-4-cyano-anilino]-5-methyl-N-methylsulfonyl-thiazole-4-carboxamide] |
| 1260 | Cc1sc(N(Cc2ccccc2)CC(O)c2ccccc2)nc1C(=O)NS(C)(=O)=O (stereo not drawn) [Compound 462, 2-[benzyl-(2-hydroxy-2-phenyl-ethyl)amino]-5-methyl-N-methylsulfonyl-thiazole-4-carboxamide] |

| EC50 [nM] | Compound |
| --- | --- |
| > 2000 | Cc1sc(N(c2ccc(C#N)cc2)[C@H](CO)c2ccccc2)nc1C(=O)NS(C)(=O)=O [Compound 467, 2-(4-cyano-N-[(1S)-2-hydroxy-1-phenyl-ethyl]anilino)-5-methyl-N-methylsulfonyl-thiazole-4-carboxamide] |
| > 2000 | Cc1sc(N(CC(O)c2ccccc2)c2ccc(C#N)cc2)nc1C(=O)NS(C)(=O)=O (stereo not drawn) [Compound 468, 2-(4-cyano-N-(2-hydroxy-2-phenyl-ethyl)anilino)-5-methyl-N-methylsulfonyl-thiazole-4-carboxamide] |
| 794 | Cc1sc(N(CCc2cccc(N(C)C)c2)c2ccc(C#N)cc2)nc1C(=O)NS(C)(=O)=O [Compound 475, 2-[4-cyano-N-[2-[3-(dimethylamino)phenyl]ethyl]anilino]-5-methyl-N-methylsulfonyl-thiazole-4-carboxamide] |
| > 2000 | Cc1sc(N(CCc2ccc(N(C)C)cc2)c2ccc(C#N)cc2)nc1C(=O)NS(C)(=O)=O [Compound 480, 2-[4-cyano-N-[2-[4-(dimethylamino)phenyl]ethyl]anilino]-5-methyl-N-methylsulfonyl-thiazole-4-carboxamide] |
| > 2000 | Cc1sc(N(CCC2CCCN2C)c2ccc(C#N)cc2)nc1C(=O)NS(C)(=O)=O (stereo not drawn) [Compound 481, 2-[4-cyano-N-[2-(1-methylpyrrolidin-2-yl)ethyl]anilino]-5-methyl-N-methylsulfonyl-thiazole-4-carboxamide] |
| > 2000 | Cc1sc(N(c2ccc(C#N)cc2)[C@@H](CO)c2ccccc2)nc1C(=O)NS(C)(=O)=O [Compound 483, 2-(4-cyano-N-[(1R)-2-hydroxy-1-phenyl-ethyl]anilino)-5-methyl-N-methylsulfonyl-thiazole-4-carboxamide] |
| > 2000 | Cc1sc(N(Cc2ncccc2OCc2ccccc2)c2ccc(C#N)cc2)nc1C(=O)NS(C)(=O)=O [Compound 490, 2-[N-[(3-benzyloxy-2-pyridyl)methyl]-4-cyano-anilino]-5-methyl-N-methylsulfonyl-thiazole-4-carboxamide] |
| > 2000 | Cc1sc(N(Cc2ccc(OC(F)(F)F)cc2)c2ccc(C#N)cc2)nc1C(=O)NS(=O)(=O)CCCN1CCOCC1 [Compound 541, 2-[4-cyano-N-[[4-(trifluoromethoxy)phenyl]methyl]anilino]-5-methyl-N-(3-morpholinopropylsulfonyl)thiazole-4-carboxamide] |
| 631 | Cc1sc(N(Cc2ccc(OCCO)cc2)c2ccc(C#N)cc2)nc1C(=O)NS(C)(=O)=O [Compound 569, 2-[4-cyano-N-[[4-(2-hydroxyethoxy)phenyl]methyl]anilino]-5-methyl-N-methylsulfonyl-thiazole-4-carboxamide] |
| 1260 | Cc1sc(N(Cc2ccc(OCC(=O)N(C)C)cc2)c2ccc(C#N)cc2)nc1C(=O)NS(C)(=O)=O [Compound 570, 2-[4-cyano-N-[[4-[2-(dimethylamino)-2-oxo-ethoxy]phenyl]methyl]anilino]-5-methyl-N-methylsulfonyl-thiazole-4-carboxamide] |
| 1580 | Cc1sc(N(Cc2ccc(OCCN3CCOCC3)cc2)c2ccc(C#N)cc2)nc1C(=O)NS(C)(=O)=O [Compound 572, 2-[4-cyano-N-[[4-(2-morpholinoethoxy)phenyl]methyl]anilino]-5-methyl-N-methylsulfonyl-thiazole-4-carboxamide] |
| 1260 | Cc1sc(N(Cc2ccc(OCC(=O)N3CCOCC3)cc2)c2ccc(C#N)cc2)nc1C(=O)NS(C)(=O)=O [Compound 573, 2-[4-cyano-N-[[4-(2-morpholino-2-oxo-ethoxy)phenyl]methyl]anilino]-5-methyl-N-methylsulfonyl-thiazole-4-carboxamide] |
| > 2000 | CNC(=O)COc1ccc(CN(c2ccc(C#N)cc2)c2nc(C(=O)NS(C)(=O)=O)c(C)s2)cc1 [Compound 574, 2-[4-cyano-N-[[4-[2-(methylamino)-2-oxo-ethoxy]phenyl]methyl]anilino]-5-methyl-N-methylsulfonyl-thiazole-4-carboxamide] |
| 398 | Cc1sc(N(Cc2ccc(OCCN3CCCC3=O)cc2)c2ccc(C#N)cc2)nc1C(=O)NS(C)(=O)=O [Compound 575, 2-[4-cyano-N-[[4-[2-(2-oxopyrrolidin-1-yl)ethoxy]phenyl]methyl]anilino]-5-methyl-N-methylsulfonyl-thiazole-4-carboxamide] |
| 794 | Cc1sc(N(Cc2ccc(OCCCN3CCCC3=O)cc2)c2ccc(C#N)cc2)nc1C(=O)NS(C)(=O)=O [Compound 578, 2-[4-cyano-N-[[4-[3-(2-oxopyrrolidin-1-yl)propoxy]phenyl]methyl]anilino]-5-methyl-N-methylsulfonyl-thiazole-4-carboxamide] |
| 501 | Cc1sc(N(Cc2cccc(OCCO)c2)c2ccc(C#N)cc2)nc1C(=O)NS(C)(=O)=O [Compound 587, 2-[4-cyano-N-[[3-(2-hydroxyethoxy)phenyl]methyl]anilino]-5-methyl-N-methylsulfonyl-thiazole-4-carboxamide] |

| Compound | EC50 [nM] |
| --- | --- |
| Cc1sc(N(C[Si](C)(C)c2ccccc2)c2ccc(C#N)cc2)nc1C(=O)NS(C)(=O)=O [Compound 477, 2-[4-cyano-N-[[dimethyl(phenyl)silyl]methyl]anilino]-5-methyl-N-methylsulfonyl-thiazole-4-carboxamide] | > 2000 |
